Results as given in patent US12071404B2, “Aza (indole)-, benzothiophene-, and benzofuran-3-sulfonamides” (UCB Pharma GmbH, priority 2016, dated 2024).

How the values were obtained:
[1] = target: T1, GPR17 (Homo sapiens, UniProt Q13304); assay: cAMP accumulation functional assay (HTRF, Schild analysis); assay type: cell-based; parameters: host or cells: Flp-In T-REx CHO; details: CHO hGPR17 cells, Schild analysis vs MDL29,951, 5 μM forskolin, read-out: cAMP assay pA2 (converted)
In short: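 Antagonist affinity (pA2) came from Schild plots of dose ratios, based on MDL29,951 concentration-response curves fitted by 4-parameter logistic. The read-out was HTRF cAMP in 5,000 doxycycline-induced CHO hGPR17 cells per well, with 30 min compound preincubation and 60 min stimulation, at room temperature in pH 7.4 buffer.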

[2] = target: T1, GPR17; assay: Calcium mobilization functional assay (GPR17 Ca2+ assay); assay type: cell-based; parameters: host or cells: Flp-In T-REx CHO; details: CHO hGPR17 cells, inhibition of 50 nM MDL29,951, Calcium 5 dye, FLIPR; read-out: Ca2+ assay pIC50 (converted)
In short: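 pIC50 values were fitted with a 4-parameter logistic curve. They reflect test-compound inhibition of cytosolic Ca2+ release evoked by 50 nM MDL29,951, tracked as Calcium 5 fluorescence at room temperature. Cells were CHO Flp-In T-REx stably carrying human GPR17, induced with doxycycline 1 μg/mL for 16-20 h.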

T1 sequence (Q13304 whole entry): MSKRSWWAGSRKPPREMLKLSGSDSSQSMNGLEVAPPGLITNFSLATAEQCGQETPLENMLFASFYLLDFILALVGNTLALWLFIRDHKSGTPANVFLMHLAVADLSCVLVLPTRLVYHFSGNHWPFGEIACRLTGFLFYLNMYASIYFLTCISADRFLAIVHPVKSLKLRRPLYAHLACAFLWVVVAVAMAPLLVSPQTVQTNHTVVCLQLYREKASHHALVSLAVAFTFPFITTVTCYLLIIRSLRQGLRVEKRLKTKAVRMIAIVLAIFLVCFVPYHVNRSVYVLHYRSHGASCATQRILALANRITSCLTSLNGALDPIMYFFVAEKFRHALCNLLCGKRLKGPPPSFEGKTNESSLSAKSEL

SMILES: COc1c(Cl)ccc2c(S(=O)(=O)Nc3nc(F)c(Cl)cc3F)c[nH]c12 [Compound I-310, 6-chloro-N-(5-chloro-3,6-difluoropyridin-2-yl)-7-methoxy-1H-indole-3-sulfonamide]
- Kb [1]: < 3.16 nM
- IC50 [2]: < 3.16 nM

SMILES: O=S(=O)(Nc1cccc2nsnc12)c1c[nH]c2c1ccc1cccnc12 [Compound I-73, N-(2,1,3-benzothiadiazol-4-yl)-1H-pyrrolo[3,2-h]quinoline-3-sulfonamide]
- Kb [1]: < 3.16 nM
- IC50 [2]: 3.16 to 31.6 nM

SMILES: O=S(=O)(Nc1nc(F)c(Cl)cc1F)c1c[nH]c2c3c(ccc12)CCC3 [Compound I-317, N-(5-chloro-3,6-difluoropyridin-2-yl)-1,6,7,8-tetrahydrocyclopenta[g]indole-3-sulfonamide]
- Kb [1]: 3.16 to 31.6 nM
- IC50 [2]: 3.16 to 31.6 nM

SMILES: COc1nc(NS(=O)(=O)c2c[nH]c3c2ccc2cccnc23)c(F)cc1Cl [Compound I-328, N-(5-chloro-3-fluoro-6-methoxypyridin-2-yl)-1H-pyrrolo[3,2-h]quinoline-3-sulfonamide]
- Kb [1]: < 3.16 nM
- IC50 [2]: < 3.16 nM

SMILES: O=c1[nH]c2cccc(NS(=O)(=O)c3c[nH]c4cc(Cl)ccc34)c2o1 [Compound I-301, 6-chloro-N-(2-oxo-2,3-dihydro-1,3-benzoxazol-7-yl)-1H-indole-3-sulfonamide]
- Kb [1]: 3.16 to 31.6 nM
- IC50 [2]: 3.16 to 31.6 nM

SMILES: O=S(=O)(Nc1ccc(I)cc1F)c1c[nH]c2cc(F)ccc12 [Compound I-49, 6-fluoro-N-(2-fluoro-4-iodophenyl)-1H-indole-3-sulfonamide]
- Kb [1]: 3.16 to 31.6 nM
- IC50 [2]: > 31.6 nM

SMILES: COC/C=C/c1cc(F)c(NS(=O)(=O)c2c[nH]c3cc(Br)ccc23)nc1F [Compound I-325, 6-bromo-N-{3,6-difluoro-5-[(1E)-3-methoxyprop-1-en-1-yl]pyridin-2-yl}-1H-indole-3-sulfonamide]
- Kb [1]: < 3.16 nM
- IC50 [2]: < 3.16 nM

SMILES: COc1nc(NS(=O)(=O)c2c[nH]c3nc(Cl)ccc23)c(F)cc1Cl [Compound I-336, 6-chloro-N-(5-chloro-3-fluoro-6-methoxypyridin-2-yl)-1H-pyrrolo[2,3-b]pyridine-3-sulfonamide]
- Kb [1]: 3.16 to 31.6 nM
- IC50 [2]: < 3.16 nM

SMILES: N#Cc1cc(NS(=O)(=O)c2c[nH]c3cc(Cl)ccc23)c2c(c1)OC(F)(F)O2 [Compound I-132, 6-chloro-N-(6-cyano-2,2-difluoro-1,3-benzodioxol-4-yl)-1H-indole-3-sulfonamide]
- Kb [1]: 3.16 to 31.6 nM
- IC50 [2]: 3.16 to 31.6 nM

SMILES: O=S(=O)(Nc1ccc(Cl)cc1F)c1c[nH]c2cc(Cl)ccc12 [Compound I-141, 6-chloro-N-(4-chloro-2-fluorophenyl)-1H-indole-3-sulfonamide]
- Kb [1]: < 3.16 nM
- IC50 [2]: 3.16 to 31.6 nM

SMILES: N#Cc1cc(F)c(NS(=O)(=O)c2c[nH]c3c2ccc2ccccc23)cc1F [Compound I-151, N-(4-cyano-2,5-difluorophenyl)-1H-benzo[g]indole-3-sulfonamide]
- Kb [1]: < 3.16 nM
- IC50 [2]: < 3.16 nM

SMILES: N#Cc1ccc(NS(=O)(=O)c2c[nH]c3cc(Br)ccc23)cc1 [Compound I-134, 6-bromo-N-(4-cyanophenyl)-1H-indole-3-sulfonamide]
- Kb [1]: < 3.16 nM
- IC50 [2]: < 3.16 nM

SMILES: O=S(=O)(Nc1ncc(Cl)cc1F)c1c[nH]c2cc(Cl)ccc12 [Compound I-202, 6-chloro-N-(5-chloro-3-fluoropyridin-2-yl)-1H-indole-3-sulfonamide]
- Kb [1]: 3.16 to 31.6 nM
- IC50 [2]: < 3.16 nM

SMILES: COc1cc(CC#N)c(F)nc1NS(=O)(=O)c1c[nH]c2cc(Cl)ccc12 [Compound I-350, 6-chloro-N-[5-(cyanomethyl)-6-fluoro-3-methoxypyridin-2-yl]-1H-indole-3-sulfonamide]
- Kb [1]: < 3.16 nM
- IC50 [2]: < 3.16 nM

SMILES: COc1cnc(NS(=O)(=O)c2c[nH]c3cc(Cl)ccc23)c(OC)c1 [Compound I-264, 6-chloro-N-(3,5-dimethoxypyridin-2-yl)-1H-indole-3-sulfonamide]
- Kb [1]: > 31.6 nM
- IC50 [2]: > 31.6 nM
